From patent US9949970B2, “Synthesis of new benzothiazole derivatives as potential anti-tubercular agents” (priority 2010, dated 2018)
Values after ≈ are worked out from the molar mass of the structure shown. Where two headings read alike, the source gives them in different places.

What was measured:
M. tuberculosis H37Rv [1] = experiment: Antimycobacterial activity: MIC by broth microdilution / Nitrate Reductase Assay; assay type: cell-based, Mycobacterium tuberculosis; conditions: lowest concentration showing no colour change (NRA)
M. tuberculosis H37Rv [2] = conditions: closest benzothiazole compounds; cited from earlier work
AML-12 cell lines = experiment: Cytotoxicity MTT assay on AML-12 cell lines; assay type: cell-based; conditions: for Cytotoxicity: AML-12 cell line, MTT, 24 hrs, test material 2-100 μg/ml; for Cytotoxicity (result in words): AML-12 cell lines, MTT assay
Procedure: The potent compounds 3j, 4e, 6a, 6f, 6g, 6i, and 6p were evaluated for cytotoxic effect on AML-12 cell lines using MTT assay, in a 96 well plate format. Cells were incubated in Dulbecco's Modified Eagle's Medium (DMEM) containing 10% fetal calf serum (FCS) with the test material (2-100 μg/ml) for 24 hrs. at 37° C. in CO2 incubator. After the completion of incubation 3-(4,5-dimethylthiazol-2-yl)-2,5-diphenyltetrazolium bromide (MTT) was added and cells were further incubated for 3 h at 37° C. in CO2 incubator. Formation of formazan salt by mitochondrial dehydrogenases, and was determined by Elisa reader at 565 nm (Multiskan Spectrum; Thermo Electron Corporation, USA). The percentage cytotoxicity was calculated with respect to the untreated cells.

M. tuberculosis (H37Rv) = experiment: In vivo efficacy in lungs of infected mice; set-up: species or system Swiss albino mice; conditions: for Log10 CFU/left Lung: infected female Swiss albino mice; for In vivo activity (result in words) / Decrease of bacterial load in lung with late control (protections): mice; for In vivo activity (result in words): lung; for Decrease of bacterial load in lung with late control (protections): versus late control
[3] = Mycobacterium tuberculosis, H37RV, read-out: MIC
[4] = Mycobacterium tuberculosis, H37RV

## NNC(=O)c1ccncc1 [INH, Isoniazid, reference compound]
M. tuberculosis H37Rv [1]; [3]
  MIC: 0.5 µg/mL (≈ 3.65 µM)

## O=[N+]([O-])c1ccc(CSc2nc3ccccc3s2)c([N+](=O)[O-])c1
M. tuberculosis H37Rv [2]
  MIC: 2 µg/mL (≈ 5.76 µM)

## O=[N+]([O-])c1ccc(C=NNc2nc3ccc(OC(F)(F)F)cc3s2)o1 [Compound 3i, 5-nitro-2-furaldehyde 2-(6-trifluoromethoxy-1,3-benzothiazole-2-yl)hydrazone]
M. tuberculosis H37Rv [1]; [3]
  MIC: > 16 µg/mL

## CC(=NNC1CSC(c2ccc3c(c2)CCC3)=N1)c1ccc(C)cc1 (stereo not shown)
M. tuberculosis H37Rv [2]
  MIC: >6.5 µg/mL

## O=[N+]([O-])c1ccc(C=NNc2nc3ccc(F)cc3s2)s1 [Compound 3l, 5-nitro-2-thiophenecarbaldehyde 2-(6-fluoro-1,3-benzothiazole-2-yl)hydrazone]
M. tuberculosis H37Rv [1]; [3]
  MIC: > 16 µg/mL

## O=[N+]([O-])c1ccc(C=NNc2nc3ccc(F)cc3s2)o1 [Compound 3k, 5-nitro-2-furaldehyde 2-(6-fluoro-1,3-benzothiazole-2-yl)hydrazone]
M. tuberculosis H37Rv [1]; [3]
  MIC: > 16 µg/mL

## O=[N+]([O-])c1ccc(C=NNc2nc3ccccc3s2)o1 [Compound 3a, 5-nitro-2-furaldehyde 2-(1,3-benzothiazole-2-yl)hydrazone]
M. tuberculosis H37Rv [1]; [3]
  MIC: > 16 µg/mL

## O=[N+]([O-])c1cc(CSc2nc3ccccc3s2)cc([N+](=O)[O-])c1
M. tuberculosis H37Rv [2]
  MIC: 2 µg/mL (≈ 5.76 µM)

## COc1ccc2nc(NN=Cc3ccc([N+](=O)[O-])o3)sc2c1 [Compound 3e, 5-nitro-2-furaldehyde 2-(6-methoxy-1,3-benzothiazole-2-yl)hydrazone]
M. tuberculosis H37Rv [1]; [3]
  MIC: > 16 µg/mL

## O=C(NNc1nc2ccccc2s1)c1ccc([N+](=O)[O-])o1 [Compound 4a, N′2-(1,3-benzothiazol-2-yl)-5-nitro-2-furancarbohydrazide]
M. tuberculosis H37Rv [1]; [3]
  MIC: > 16 µg/mL

## N3-(6-{[(5-nitro-2-furyl)carbonyl]amino}-1,3-benzothiazol-2-yl)nicotinamide [Compound 6o]
AML-12 cell lines
  Cytotoxicity: >100 µg/mL
  Cytotoxicity (result in words): no cytotoxicity
M. tuberculosis H37Rv [1]
  MIC: 4.0 µg/mL

## N2-(2-{[(E)-3-(4-chlorophenyl)-2-propenoyl]amino}-1,3-benzothiazol-6-yl)-5-nitro-2-furamide [Compound 6w]
AML-12 cell lines
  Cytotoxicity: >100 µg/mL
  Cytotoxicity (result in words): no cytotoxicity

## O=[N+]([O-])c1ccc2nc(NN=Cc3ccc([N+](=O)[O-])o3)sc2c1 [Compound 3o, 5-nitro-2-furaldehyde 2-(6-nitro-1,3-benzothiazole-2-yl)hydrazone]
M. tuberculosis H37Rv [1]; [4]
  MIC: 16 µg/mL (≈ 48 µM)

## O=[N+]([O-])c1ccc2nc(NN=Cc3ccc([N+](=O)[O-])s3)sc2c1 [Compound 3p, 5-nitro-2-thiophenecarbaldehyde 2-(6-nitro-1,3-benzothiazole-2-yl)hydrazone]
M. tuberculosis H37Rv [1]; [4]
  MIC: > 16 µg/mL

## COc1ccc2nc(NN=Cc3ccc([N+](=O)[O-])s3)sc2c1 [Compound 3f, 5-nitro-2-thiophenecarbaldehyde 2-(6-methoxy-1,3-benzothiazole-2-yl)hydrazone]
M. tuberculosis H37Rv [1]; [3]
  MIC: > 16 µg/mL

## CO[C@H]1/C=C/O[C@@]2(C)Oc3c(C)c(O)c4c(O)c(c(/C=N/N5CCN(C)CC5)c(O)c4c3C2=O)NC(=O)/C(C)=C\C=C\[C@H](C)[C@H](O)[C@@H](C)[C@@H](O)[C@@H](C)[C@H](OC(C)=O)[C@@H]1C [RMP, Rifampicin, reference compound]
M. tuberculosis H37Rv [1]; [3]
  MIC: 0.25 µg/mL (≈ 0.304 µM)
M. tuberculosis (H37Rv); 20 mg/kg
  Log10 CFU/left Lung: 2.0 ± 0.41

## Cc1ccc2nc(NN=Cc3ccc([N+](=O)[O-])s3)sc2c1 [Compound 3d, 5-nitro-2-thiophenecarbaldehyde 2-(6-methyl-1,3-benzothiazole-2-yl)hydrazone]
M. tuberculosis H37Rv [1]; [3]
  MIC: > 16 µg/mL

## O=C(NNc1nc2ccc(Cl)cc2s1)c1ccc([N+](=O)[O-])o1 [Compound 4g, N′2-(6-chloro-1,3-benzothiazol-2-yl)-5-nitro-2-furanecarbohydrazide]
M. tuberculosis H37Rv [1]; [3]
  MIC: > 16 µg/mL

## O=[N+]([O-])c1ccc(C=NNc2nc3ccc(C(F)(F)F)cc3s2)s1 [Compound 3h, 5-nitro-2-thiophenecarbaldehyde 2-(6-trifluoromethyl-1,3-benzothiazole-2-yl)hydrazone]
M. tuberculosis H37Rv [1]; [3]
  MIC: > 16 µg/mL

## N2-(2-{[(E)-3-phenyl-2-propenoyl]amino}-1,3-benzothiazol-6-yl}-5-nitro-2-furamide [Compound 6q]
AML-12 cell lines
  Cytotoxicity: >100 µg/mL
  Cytotoxicity (result in words): no cytotoxicity
M. tuberculosis H37Rv [1]
  MIC: 8.0 µg/mL

## O=C(Nc1nc2ccc(NC(=O)c3ccc([N+](=O)[O-])o3)cc2s1)c1ccccc1 [Compound 6a, N2-[2-(benzoylamino)-1,3-benzothiazol-6-yl]-5-nitrofuramide]
AML-12 cell lines
  Cytotoxicity: >100 µg/mL
  Cytotoxicity (result in words): no cytotoxicity
M. tuberculosis H37Rv [1]; [3]
  MIC: 0.5 to 8 µg/mL (≈ 1.22 to 19.6 µM)
M. tuberculosis H37Rv [1]
  MIC: 1 µg/mL (≈ 2.45 µM)

## O=C(Nc1nc2ccc(NC(=O)c3ccc([N+](=O)[O-])o3)cc2s1)c1ccc(F)cc1 [Compound 6f, N2-{2-[(4-fluorobenzoyl)amino]-1,3-benzothiazol-6-yl}-5-nitrofuramide]
AML-12 cell lines
  Cytotoxicity: >100 µg/mL
  Cytotoxicity (result in words): no cytotoxicity
M. tuberculosis H37Rv [1]
  MIC: 0.5 µg/mL (≈ 1.17 µM)
M. tuberculosis (H37Rv); 25 mg/kg
  In vivo activity (result in words): bacteriostatic activities
  Decrease of bacterial load in lung with late control (protections): 1.0
  Log10 CFU/left Lung: 6.0 ± 0.13

## O=C(NNc1nc2ccc(OC(F)(F)F)cc2s1)c1ccc([N+](=O)[O-])o1 [Compound 4e, N′2-(6-trifluoromethoxy-1,3-benzothiazol-2-yl)-5-nitro-2-furanecarbohydrazide]
AML-12 cell lines
  Cytotoxicity: >100 µg/mL
  Cytotoxicity (result in words): no cytotoxicity

## O=C(Nc1ccc2nc(NC(=O)c3ccc(F)cc3F)sc2c1)c1ccc([N+](=O)[O-])o1 [Compound 6i, N2-{2-[(2,4-difluorobenzoyl)amino]-1,3-benzothiazol-6-yl}-5-nitrofuramide]
AML-12 cell lines
  Cytotoxicity: >100 µg/mL
  Cytotoxicity (result in words): no cytotoxicity
M. tuberculosis H37Rv [1]
  MIC: 0.5 µg/mL (≈ 1.13 µM)
M. tuberculosis (H37Rv); 25 mg/kg
  In vivo activity (result in words): bacteriostatic activities
  Decrease of bacterial load in lung with late control (protections): 1.0
  Log10 CFU/left Lung: 6.3 ± 0.37

## O=C(NNc1nc2ccc(C(F)(F)F)cc2s1)c1ccc([N+](=O)[O-])o1 [Compound 4d, N′2-(6-trifluoromethyl-1,3-benzothiazol-2-yl)-5-nitro-2-furancarbohydrazide]
M. tuberculosis H37Rv [1]; [3]
  MIC: > 16 µg/mL

## O=[N+]([O-])c1ccc(C=NNc2nc3ccc(C(F)(F)F)cc3s2)o1 [Compound 3g, 5-nitro-2-furaldehyde 2-(6-trifluoromethyl-1,3-benzothiazole-2-yl)hydrazone]
M. tuberculosis H37Rv [1]; [3]
  MIC: > 16 µg/mL

## O=[N+]([O-])c1ccc(C=NNc2nc3ccccc3s2)s1 [Compound 3b, 5-nitro-2-thiophenecarbaldehyde 2-(1,3-benzothiazole-2-yl)hydrazone]
M. tuberculosis H37Rv [1]; [3]
  MIC: > 16 µg/mL

## O=C(NNc1nc2ccc(F)cc2s1)c1ccc([N+](=O)[O-])o1 [Compound 4f, N′2-(6-fluoro-1,3-benzothiazol-2-yl)-5-nitro-2-furanecarbohydrazide]
M. tuberculosis H37Rv [1]; [3]
  MIC: > 16 µg/mL

## O=C(Nc1nc2ccc(NC(=O)c3ccc([N+](=O)[O-])o3)cc2s1)c1ccc(Cl)cc1 [Compound 6g, N2-{2-[(4-chlorobenzoyl)amino]-1,3-benzothiazol-6-yl}-5-nitrofuramide]
AML-12 cell lines
  Cytotoxicity: >100 µg/mL
  Cytotoxicity (result in words): no cytotoxicity
M. tuberculosis H37Rv [1]
  MIC: 0.5 µg/mL (≈ 1.13 µM)
M. tuberculosis (H37Rv); 25 mg/kg
  In vivo activity (result in words): bacteriostatic activities
  Decrease of bacterial load in lung with late control (protections): 1.0
  Log10 CFU/left Lung: 6.1 ± 0.48

## O=[N+]([O-])c1ccc(C=NNc2nc3ccc(Cl)cc3s2)s1 [Compound 3n, 5-nitro-2-thiophenecarbaldehyde 2-(6-chloro-1,3-benzothiazole-2-yl)hydrazone]
M. tuberculosis H37Rv [1]; [3]
  MIC: > 16 µg/mL

## O=C(Nc1nc2ccc(NC(=O)c3ccc([N+](=O)[O-])o3)cc2s1)c1cnccn1 [Compound 6p, N2-(6-{[(5-nitro-2-furyl)carbonyl]amino}-1,3-benzothiazol-2-yl)-2-pyrazinecarboxamide]
AML-12 cell lines
  Cytotoxicity: >100 µg/mL
  Cytotoxicity (result in words): no cytotoxicity
M. tuberculosis H37Rv [1]
  MIC: 1 µg/mL (≈ 2.44 µM)

## O=[N+]([O-])c1ccc(C=NNc2nc3ccc(OC(F)(F)F)cc3s2)s1 [Compound 3j, 5-nitro-2-thiophenecarbaldehyde 2-(6-trifluoromethoxy-1,3-benzothiazole-2-yl)hydrazone]
AML-12 cell lines
  Cytotoxicity: >100 µg/mL
  Cytotoxicity (result in words): no cytotoxicity
M. tuberculosis H37Rv [1]; [3]
  MIC: 0.5 to 8 µg/mL (≈ 1.29 to 20.6 µM)
M. tuberculosis H37Rv [1]
  MIC: 1 µg/mL (≈ 2.57 µM)

## Cc1ccc2nc(NN=Cc3ccc([N+](=O)[O-])o3)sc2c1 [Compound 3c, 5-nitro-2-furaldehyde 2-(6-methyl-1,3-benzothiazole-2-yl)hydrazone]
M. tuberculosis H37Rv [1]; [3]
  MIC: > 16 µg/mL

## O=C(NNc1nc2ccc([N+](=O)[O-])cc2s1)c1ccc([N+](=O)[O-])o1 [Compound 4h, N′2-(6-nitro-1,3-benzothiazol-2-yl)-5-nitro-2-furanecarbohydrazide]
M. tuberculosis H37Rv [1]; [4]
  MIC: 16 µg/mL (≈ 45.8 µM)

## O=[N+]([O-])c1ccc(C=NNc2nc3ccc(Cl)cc3s2)o1 [Compound 3m, 5-nitro-2-furaldehyde 2-(6-chloro-1,3-benzothiazole-2-yl)hydrazone]
M. tuberculosis H37Rv [1]; [3]
  MIC: 16 µg/mL (≈ 49.6 µM)

## Cc1ccc2nc(NNC(=O)c3ccc([N+](=O)[O-])o3)sc2c1 [Compound 4b, N′2-(6-methyl-1,3-benzothiazol-2yl)-5-nitro-2-furancarbohydrazide]
M. tuberculosis H37Rv [1]; [3]
  MIC: > 16 µg/mL

## COc1ccc2nc(NNC(=O)c3ccc([N+](=O)[O-])o3)sc2c1 [Compound 4c, N′2-(6-methoxy-1,3-benzothiazol-2-yl)-5-nitro-2-furancarbohydrazide]
M. tuberculosis H37Rv [1]; [3]
  MIC: > 16 µg/mL
